In article PMC10744608, “Simplified Synthesis of Renieramycin T Derivatives to Target Cancer Stem Cells via β-Catenin Proteasomal Degradation in Human Lung Cancer” (Marine Drugs, 2023):

How the values were obtained:
Format in all cases: cell-based, human
[1] = test system: A549, H23, and H292 cells; assay: Western blot of CSC markers; conditions: 25, 50, and 100 nM, 24 h
Description: (§1) The protein expression levels in NSCLC cells were assessed through Western blot analysis. A549, H23, and H292 cells were seeded at a density of 4 × 10^5 cells per well in 6-well cell culture plates. These cells were subjected to treatments with DH_32 at concentrations of 0, 25, 50, and 100 nM for 24 h at 37 °C.
(§2) Following treatment, the cells were collected using cold PBS and incubated on ice with a lysis buffer. The lysis buffer contained 50 mM 4-(2-hydroxyethyl)-1-piperazineethanesulfonic acid (pH 7.5), 150 mM NaCl, 5 mM EDTA, 1% Triton X-100, 1 mM phenylmethylsufonyl fluoride, and 2 μg/mL pepstatin A (cat no: 9803, Cell Signaling), along with complete protease inhibitor cocktail tablets provided in EASYpack (Roche, cat no: 04693116001). The incubation occurred for 40 min on ice, followed by centrifugation at 12,000× g at 4 °C for 15 min. Cell lysates were collected, and the protein content was quantified using the bicinchoninic acid (BCA) protein kit from Thermo-Fisher Scientific, Rockford, IL, USA. […] A chemiluminescent substrate (Supersignal West Pico; Pierce, Rockford, IL, USA) was applied to detect complex reactivity, and the signal intensity was quantified through densitometry. Protein intensity was analyzed by using ImageJ software (Image J 1.52a, Rasband, W., National Institutes of Health, Bethesda, MD, USA). […]

[2] = test system: β-catenin in A549, H23, and H292 cells; assay: Western blot of β-catenin; conditions: 0–100 nM, 24 h
Description: as §1, §2

[3] = test system: A549, H23, and H292 cells; assay: Immunofluorescence of stem cell markers and transcription factors; conditions: A549, H23, and H292, 50 nM, 24 h
Description: A549, H23, and H292 NSCLC cells were seeded at a concentration of 1 × 10^4 cells per well in 96-well plates. The cells were exposed to different concentrations of DH_32 (0, 25, 50, and 100 nM) for 24 h, after which the medium was removed. Following that, the cells were subjected to fixation with 4% paraformaldehyde for 15 min. The cells were permeabilization with 0.5% Triton-X for 5 min, followed by the blocking of non-specific proteins with 10% FBS in 0.1% Triton-X PBS for 1 h at room temperature. The cells were exposed to a 1:400 dilution of primary antibodies (CD133, CD44, ALDH1A1, OCT4, NANOG, SOX2, and β-catenin) and incubated at 4 °C overnight. On the subsequent day, the cells were treated with a 1:500 dilution of the following secondary antibodies: Alexa Fluor 594-conjugated goat anti-rabbit IgG (H+L) (Invitrogen) and Alexa Fluor 488-conjugated goat anti-mouse IgG (H+L) (Invitrogen). Simultaneously, the localization of nuclei was stained with Hoechst 33342 for 1 h at room temperature. The cells were rinsed with PBS and then covered with 50% glycerol. The images were captured by a fluorescence microscope (Olympus IX 51 with DP70; Olympus America Inc., Center valley, PA, USA). The fluorescence intensity was measured by Image J software. RT acted as the positive control for this experiment.

H23 cells [4] = assay: Western blot of apoptosis-related proteins (cleaved PARP, Bcl-2, Bax)
Description: as §1
(§3) Following treatment, the cells were collected using cold PBS and incubated on ice with a lysis buffer. The lysis buffer contained 50 mM 4-(2-hydroxyethyl)-1-piperazineethanesulfonic acid (pH 7.5), 150 mM NaCl, 5 mM EDTA, 1% Triton X-100, 1 mM phenylmethylsufonyl fluoride, and 2 μg/mL pepstatin A (cat no: 9803, Cell Signaling), along with complete protease inhibitor cocktail tablets provided in EASYpack (Roche, cat no: 04693116001). The incubation occurred for 40 min on ice, followed by centrifugation at 12,000× g at 4 °C for 15 min. Cell lysates were collected, and the protein content was quantified using the bicinchoninic acid (BCA) protein kit from Thermo-Fisher Scientific, Rockford, IL, USA. The sample was denatured by heating at 95 °C for 5 min with a sample buffer. The protein was loaded onto a 10% sodium dodecyl sulfate polyacrylamide gel electrophoresis (SDS-PAGE). Following gel separation, the proteins were transferred onto a nitrocellulose membrane with a pore size of 0.45 μm. The membranes were incubated with 5% nonfat dry milk in TBST (25 mm Tris-HCl, pH 7.4, 125 mm NaCl, and 0.05% Tween 20) for 1 h 30 min. Following this, the membrane was exposed to primary antibodies (Cell Signaling) including rabbit PARP, BcL2, Bax, CD133, CD44, OCT4, ALDH1A1, and β-catenin, and incubated at 4 °C overnight. Rabbit β-actin served as the control for loading normalization. The primary antibodies were diluted to 1:1000 in 5% w/v BSA in TBST. The membranes were washed with TBST and were then exposed to horseradish-peroxidase (HRP)-conjugated isotype-specific secondary antibodies, as well as anti-rabbit and anti-mouse IgG (1:2000 in 5% w/v skim milk in TBST), for 1 h at RT. Membranes were washed again with TBST. A chemiluminescent substrate (Supersignal West Pico; Pierce, Rockford, IL, USA) was applied to detect complex reactivity, and the signal intensity was quantified through densitometry. Protein intensity was analyzed by using ImageJ software (Image J 1.52a, Rasband, W., National Institutes of Health, Bethesda, MD, USA). RT acted as the positive control for this experiment.

H292 cells [5] = assay: as above
Description: as §1, §3

H23 cells [6] = assay: RT-qPCR of stemness transcription factors; conditions: H23, 6 h
Description: (§4) RNA extraction was performed on DH_32-treated cells (3 × 10^5 cells per well in 6-well plates) using GENEzol as the reagent. Total RNA was used to synthesize cDNA through the application of SuperScript III reverse transcriptase from Invitrogen. Following cDNA synthesis, 100 ng of the cDNA was utilized for RT-qPCR, employing Luna Universal qPCR Master Mix from NEB, UK, in a final volume of 20 µL. The reaction mixture was conducted using the CFX 96 real-time PCR system from Bio-Rad, located in Hercules, CA. For the RT-qPCR, the protocol included an initial denaturation step at 95 °C for 1 min, followed by 45 cycles involving denaturation at 95 °C for 10 s, annealing and extension at 60 °C for 30 s. Melting curve analysis was employed to assess the specificity of the primers. The targeted primer genes were: The gene expression levels were normalized using the GAPDH gene as an internal control. The relative mRNA gene expression level for each gene was determined based on the comparative Cq values. RT acted as the positive control for this experiment.

H292 cells [7] = assay: RT-qPCR of stemness transcription factors; conditions: H292, 6 h
Description: as §4

A549 cells = assay: RT-qPCR of stemness transcription factors; conditions: A549, 50 nM, 6 h, normalized to GAPDH
Description: as §4

COC1=C(C)C(=O)C2=C(C1=O)[C@@H]1CN(Cc3ccc4ccccc4c3)[C@@H](C#N)[C@H](C2)N1C [DH_32, (1R,4R,5S)-9-methoxy-8,11-dimethyl-3-(naphthalen-2-ylmethyl)-7,10-dioxo-1,2,3,4,5,6,7,10-octahydro-1,5-epiminobenzo[d]azocine-4-carbonitrile]
CSC markers CD133, CD44, OCT4, and ALDH1A1 by western blot [1]: dramatic decrease
β-catenin protein level by Western blot [2]: significant decrease in the β-catenin protein level
fluorescence signals of stem cell markers CD133, CD44, and ALDH1A1 [3]: approximately 0.5 fold
fluorescence signals of stem cell transcription factors OCT4, NANOG, and SOX2 [3]: approximately 0.5 fold
anti-apoptotic Bcl-2 protein level (H23 cells [4]; H23, 0–100 nM, 24 h): significant reduction in a dose-dependent manner
cleaved PARP level (H23 cells [4]; H23, 50 nM, 24 h): substantial increase
pro-apoptotic protein Bax level (H23 cells [4]; H23, 24 h): remained unaltered
anti-apoptotic Bcl-2 protein level (H292 cells [5]; H292, 0–100 nM, 24 h): significant reduction in a dose-dependent manner
cleaved PARP level (H292 cells [5]; H292, 50 nM, 24 h): substantial increase
pro-apoptotic protein Bax level (H292 cells [5]; H292, 24 h): remained unaltered
mRNA of OCT4, NANOG, and SOX2 (H23 cells [6]): significantly decreased
mRNA of OCT4, NANOG, and SOX2 (H292 cells [7]): significantly decreased
mRNA expression level of NANOG (A549 cells): 0.4 fold
mRNA expression level of OCT4 (A549 cells): 0.5 fold
mRNA expression level of SOX2 (A549 cells): 0.3 fold
